Laboratory results reported in the supplement of paper PMC10307832.

Assays:
Experiment in all cases: relative viability (nuclei count vs DMSO), 5 days (fraction); higher = more cells survive
KN-93 + AZD7762 = compound: CN(C/C=C/C1=CC=C(C=C1)Cl)CC2=CC=CC=C2N(CCO)S(=O)(=O)C3=CC=C(C=C3)OC [KN-93] + NC(=O)Nc1cc(-c2cccc(F)c2)sc1C(=O)N[C@H]1CCCNC1 [AZD7762] (partner 0.2 µM)
In short: (§1)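 Nuclei were stained with Hoechst during a one-step fixation (final 0.05% Triton X-100, 1% formaldehyde, 1 ug/ml Hoechst) carried out 5 days after dosing, then counted on 4× images. The cells, lung cancer lines in 1536-well plates, had been dosed by pin tool the day after seeding with one drug alone or a fixed anchor-drug dose plus five library-drug doses (not always all listed) in √10 steps. Relative viability is the nuclei count in treated wells divided by that in vehicle wells, and each value is the median of duplicate plates.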

KN-93 + Dasatinib = compound: CN(C/C=C/C1=CC=C(C=C1)Cl)CC2=CC=CC=C2N(CCO)S(=O)(=O)C3=CC=C(C=C3)OC [KN-93] + Cc1nc(Nc2ncc(C(=O)Nc3c(C)cccc3Cl)s2)cc(N2CCN(CCO)CC2)n1 [Dasatinib] (partner 0.075 µM)
In short: as §1

KN-93 + Lapatinib = compound: CN(C/C=C/C1=CC=C(C=C1)Cl)CC2=CC=CC=C2N(CCO)S(=O)(=O)C3=CC=C(C=C3)OC [KN-93] + CS(=O)(=O)CCNCc1ccc(-c2ccc3ncnc(Nc4ccc(OCc5cccc(F)c5)c(Cl)c4)c3c2)o1 [Lapatinib] (partner 2 µM)
In short: as §1

KN-93 + Phenformin = compound: CN(C/C=C/C1=CC=C(C=C1)Cl)CC2=CC=CC=C2N(CCO)S(=O)(=O)C3=CC=C(C=C3)OC [KN-93] + N=C(N)NC(=N)NCCc1ccccc1 [Phenformin] (partner 250 µM)
In short: as §1

KN-93 + Alpelisib = compound: CN(C/C=C/C1=CC=C(C=C1)Cl)CC2=CC=CC=C2N(CCO)S(=O)(=O)C3=CC=C(C=C3)OC [KN-93] + Cc1nc(NC(=O)N2CCC[C@H]2C(N)=O)sc1-c1ccnc(C(C)(C)C(F)(F)F)c1 [Alpelisib] (partner 2 µM)
In short: as §1

| Cell Line | relative viability (KN-93 + AZD7762; first compound 0.08 µM) | relative viability (KN-93 + AZD7762; first compound 0.253 µM) | relative viability (KN-93 + AZD7762; first compound 2.53 µM) | relative viability (KN-93 + AZD7762; first compound 8 µM) | relative viability (KN-93 + Dasatinib; first compound 0.08 µM) | relative viability (KN-93 + Dasatinib; first compound 0.253 µM) | relative viability (KN-93 + Dasatinib; first compound 2.53 µM) | relative viability (KN-93 + Dasatinib; first compound 8 µM) | relative viability (KN-93 + Lapatinib; first compound 0.08 µM) | relative viability (KN-93 + Lapatinib; first compound 0.253 µM) | relative viability (KN-93 + Lapatinib; first compound 2.53 µM) | relative viability (KN-93 + Lapatinib; first compound 8 µM) | relative viability (KN-93 + Phenformin; first compound 0.08 µM) | relative viability (KN-93 + Phenformin; first compound 0.253 µM) | relative viability (KN-93 + Phenformin; first compound 2.53 µM) | relative viability (KN-93 + Phenformin; first compound 8 µM) | relative viability (KN-93 + Alpelisib; first compound 0.08 µM) | relative viability (KN-93 + Alpelisib; first compound 0.253 µM) | relative viability (KN-93 + Alpelisib; first compound 2.53 µM) | relative viability (KN-93 + Alpelisib; first compound 8 µM) |
| --- | --- | --- | --- | --- | --- | --- | --- | --- | --- | --- | --- | --- | --- | --- | --- | --- | --- | --- | --- | --- |
| 201T | 0.616 | 0.707 | 0.658 | 0.619 | 0.604 | 0.421 | 0.533 | 0.342 | 1.1 | 0.955 | 1.03 | 0.988 | 0.47 | 0.424 | 0.51 | 0.452 | 1.17 | 0.966 | 1.01 | 0.935 |
| A-427 | 0.657 | 0.771 | 1.03 | 0.548 | 0.71 | 0.668 | 0.672 | 0.324 | 1.21 | 1.28 | 1.05 | 0.878 | 0.322 | 0.35 | 0.278 | 0.229 | 1.07 | 1.18 | 1.08 | 0.975 |
| ABC-1 | 0.924 | 1.05 | 0.869 | 0.38 | 0.585 | 0.476 | 0.468 | 0.203 | 0.92 | 1.64 | 1.18 | 1.05 | 0.248 | 0.242 | 0.248 | 0.216 | 0.893 | 1.27 | 1.13 | 0.715 |
| BEN | 0.771 | 0.661 | 0.678 | 0.442 | 0.307 | 0.319 | 0.307 | 0.266 | – | 0.968 | 0.918 | 0.362 | 0.239 | 0.26 | 0.295 | 0.275 | – | 1.37 | 1.06 | 0.806 |
| CAL-12T | 0.56 | 0.628 | 0.667 | 0.399 | 0.358 | 0.286 | 0.509 | 0.139 | 0.616 | 0.574 | 0.716 | 0.496 | 0.557 | 0.474 | 0.563 | 0.407 | 0.859 | 1.44 | 1.57 | 1.06 |
| EKVX | 0.623 | 0.515 | 0.73 | 0.354 | 0.42 | 0.429 | 0.358 | 0.389 | 0.209 | 0.133 | 0.194 | 0.153 | 0.23 | 0.224 | 0.239 | 0.203 | 0.728 | 0.845 | 1.02 | 0.692 |
| EMC-BAC-2 | 1.22 | 1.28 | 1.2 | 0.872 | 0.299 | 0.366 | 0.3 | 0.272 | 0.852 | 0.956 | 0.943 | 0.625 | 0.501 | 0.596 | 0.548 | 0.458 | 0.683 | 0.732 | 0.928 | 0.676 |
| EPLC-272H | 0.195 | 0.2 | 0.527 | 0.347 | 0.32 | 0.452 | 0.274 | 0.206 | 0.925 | 1.03 | 0.981 | 0.774 | 0.276 | 0.299 | 0.276 | 0.25 | 0.947 | 1.02 | 1.04 | 0.792 |
| H3255 | 0.878 | 0.894 | 0.989 | 0.558 | 0.366 | 0.343 | 0.511 | 0.341 | 0.266 | 0.241 | 0.259 | 0.224 | 0.383 | 0.339 | 0.401 | 0.362 | 0.664 | 0.788 | 0.631 | 0.532 |
| HARA | 0.303 | 0.392 | 0.193 | 0.271 | 0.246 | 0.283 | 0.248 | 0.104 | 0.693 | 0.737 | 0.811 | 0.625 | 0.329 | 0.477 | 0.543 | 0.148 | 0.811 | 0.775 | 0.705 | 0.471 |
| HCC-15 | 1.18 | 1.24 | 1.38 | 1 | 0.59 | 0.535 | 0.581 | 0.447 | 0.625 | 1.01 | 1.02 | 0.685 | 0.401 | 0.522 | 0.685 | 0.42 | 0.816 | 1.09 | 0.884 | 0.744 |
| HCC-78 | 0.623 | 0.506 | 0.622 | 0.653 | 0.336 | 0.459 | 0.373 | 0.344 | 0.881 | 0.703 | 1.02 | 0.21 | 0.769 | 0.664 | 0.636 | 0.652 | 0.385 | 0.276 | 0.393 | 0.212 |
| HCC-366 | 0.269 | 0.221 | 0.286 | 0.0943 | 0.513 | 0.562 | 0.737 | 0.223 | – | 1.24 | 1.7 | 0.83 | 0.595 | 0.661 | 0.639 | 0.277 | – | 0.394 | 0.507 | 0.172 |
| HCC-827 | 0.195 | 0.159 | 0.191 | 0.186 | 0.279 | 0.302 | 0.233 | 0.275 | 0.218 | 0.204 | 0.197 | 0.194 | 0.417 | 0.385 | 0.479 | 0.407 | 0.959 | 0.985 | 0.962 | 0.755 |
| HOP-62 | 0.476 | 0.499 | 0.797 | 0.458 | 0.52 | 0.669 | 0.675 | 0.501 | 0.94 | 1.23 | 0.985 | 1 | 0.525 | 0.835 | 0.849 | 0.741 | 1.1 | 1.22 | 1.22 | 0.866 |
| LC-2-ad | 0.775 | 0.958 | 0.953 | 0.785 | 0.74 | 0.571 | 0.523 | 0.329 | 0.952 | 1.21 | 0.997 | 0.673 | 0.651 | 0.678 | 0.645 | 0.553 | 0.815 | 0.945 | 0.84 | 0.53 |
